According to US12582688B2, “Compositions for the treatment of hypopigmentation” (University of Pretoria, priority 2021, dated 2026):
Where no end group is shown, it is not given here.

Legend:
[1] = test system: Primary human melanocytes and primary human keratinocytes; test: Melanin transfer in melanocyte/keratinocyte co-culture, immunofluorescence; assay type: cell-based; conditions: NHM/NHK co-culture, 24 hours
Description: Primary human melanocytes and primary human keratinocytes were cultured in normal Dulbecco's Modified Eagle's Medium (DMEM) containing melanocyte and keratinocyte growth factors respectively. Melanocytes (2.5×10^3 cells/well) were seeded on gelatine treated round coverslips in 24 well plates and were incubated at 37° C. for 72 hours. After the 72 hours the melanocyte medium was removed and medium (with a higher Ca concentration and keratinocyte growth factors) containing the keratinocytes (25×10^3 cells/well) was added to each well. The co-culture was incubated overnight to ensure that the keratinocytes attached. […] After 24 hours the treated cells and untreated cells were analysed with immunofluorescence ([…], et al., 2008). The 24-hour co-cultured cells were washed with PBS and fixed with MeOH (added at a temperature of -20° C.) and incubated for 4 minutes at -20° C. The fixed cells were washed with PBS to remove all the MeOH and incubated for 1 hour at room temperature with goat serum (0.5% in PBS) to remove effects of background noise. […] The washed coverslips were transferred to microscope slides containing mounting media and stored covered at 4° C., until analysed using the fluorescent microscope. The statistical significance in the melanin transfer results obtained for the different treatments, was determined with a student's T-test. […]

[2] = test system: B16-F10 mouse melanocytes; test: Melanin production (intracellular and extracellular) in B16-F10 mouse melanocytes; assay type: cell-based; conditions: B16F10 cells, 72 hours; A. linearis at 500 μg/ml (highest concentration tested)
Description: Cultured B16F10 mouse melanocytes (passage number 6) were trypsinized (0.25% trypsin and 0.1% EDTA at 37° C. for 5-10 min). Cells (2×10^4 cells/well in 1.9 ml of MEM) were inoculated into 24-well plates using a pipette (FALCON 353046, Becton Dickinson Labware, NJ, U.S.A.), and incubated for 24 hours at 37° C. in the CO2 incubator. After 24-hour incubation, 100 μl of each sample solution was added to each well in duplicate, and the 24-well plate was incubated for 72 hours at 37° C. in the CO2 incubator. […] A 0.5% DMSO concentration was used as a negative control. After incubation, the cultured medium was removed, and assayed for extracellular melanin. The cultured medium was centrifuged (900 g, 20 min at 4° C.) to give a supernatant. One millilitre of a mixture of 0.4 M HEPES buffer (pH 6.8) and EtOH (9:1, v/v) was added to 1 ml of the supernatant was separated. The OD at 475 nm of the resulting solution was measured, and the amount of extracellular melanin was determined. The remaining melanocytes were digested by the addition of […] of CMF-D-PBS and trypsinized (0.25% trypsin and 0.1% EDTA at 37° C. for 5 to 10 min), and then incubated for 16 hours at room temperature. Spectrophotometric analysis of the amount of intracellular melanin was then performed at 475 nm.

alpha melanocyte stimulating hormone (SYSMEHFRWGKPV; ends and bridges not checked; UniProt P01189 138-150, looked up) [α-MSH, positive control for melanin transfer]
melanocyte dendricity and melanosomes in the dendrite tips [1]: increase in the fluorescence in the tip of the dendrites
melanosomes around the keratinocyte nuclei (positive keratinocytes) ([1]; versus untreated cells): higher presence of melanosomes around the keratinocyte nuclei

Cn1c(=O)c2[nH]cnc2n(C)c1=O [theophylline]
additional melanin extracellularly [2]: 19 µg/mL
additional melanin intracellularly [2]: 21 µg/mL
additional melanin produced than in the untreated cells (total) [2]: 40 µg/mL
